The target in data set [1] is T1, GST-Pin1 (Homo sapiens, UniProt Q13526). The data set is described as follows: chymotrypsin coupled PPlase activity assay, Pin1. Format: biochemical. The text has this:
where Km is the Michaelis constant for the used substrate, S is the initial concentration of the substrate in the assay, and the IC50 value is of the inhibitor.

The next data set concerns the target GST-FKBP12 (Homo sapiens, UniProt P62942). The data set is described as follows: chymotrypsin coupled PPlase activity assay, FKBP12. Type of data set: biochemical.
For a further data set, the system named is GST-cyclophilin. As to the kind of experiment: chymotrypsin coupled PPlase activity assay, cyclophilin.
In data set [2] the target is T1, GST-Pin1. The data set is described as follows: fluorescence polarization (FP) pTide competition assay / FP-HTS.
Text: This sequence was optimized for solubility and binding to GST-PPI. […] Measurements of fluorescence polarization and fluorescence absorbance were made in black 384-well plates (Corning) using a Synergy II plate reader. Compounds were transferred to plates using a custom-built Seiko pin-transfer robot at the Institute for Chemistry and Cell Biology at Harvard Medical School. The assay can tolerate up to 10%/o DMSO.
Molecules that compete with pTide for binding to the active site, e.g., Pin1 substrates, were detected under equilibrium conditions. A Z score was used to identify and rank those molecules that were most competitive with pTide (e.g., that have higher binding affinity). A Z score is defined as Z=(x−μ)/σ, where x is a raw score, μ is the mean of the population, and σ is the standard deviation of the population. Molecules with the most negative Z scores represent those with the highest Pin1 binding affinity. The Z′ value for this assay was around 0.70 and was consistent for day-to-day performance, with a coefficient of variation in the range of 4-5%.
A lower value of Ki is indicative of higher association and, accordingly, higher affinity of the substrate to the protein.
For data set [3], the system named is vector control or Rab2A-overexpressing HMLEs. The data set is described as follows: BFA treatment of HMLE cells (ERGIC53 staining, Erk1/2 blots). Particulars: 10 μg/ml BFA. Type of data set: cell-based, human. The text has this:
To elucidate how Rab2A overexpression or its Q58H mutation activates Erk1/2, we first examined whether Rab2A co-localized with Erk1/2. HMLE cells were starved and then stimulated by EGF to induce Erk1/2 phosphorylation. […] Overexpressing Rab2A Q58H at levels similar to the endogenous level also activated and colocalized with Erk1/2 like overexpressing WT Rab2A at 3 times higher levels (FIGS. 45A and 46A). To determine where Rab2A or its Q58H mutant colocalized with Erk1/2 at the perinuclear region, we performed double immunostaining Rab2A and ERGIC53, an ER-Golgi intermediate compartment (ERGIC) marker. Both Rab2A and its Q58H mutant colocalized with Erk1/2 at the ERGIC (FIG. 45B). Thus, overexpressed Rab2A or its Q58H mutant co-localizes with Erk1/2 and promotes Erk1/2 activation at the ERGIC. To examine whether Rab2A's vesicular trafficking function is associated with Erk activation, we used brefeldin A (BFA) to block the trafficking from the ERGIC to ER because BFA dissociates ADP ribosylation factor (ARF) effectors from Golgi and ERGIC membranes, leading to block in both anterograde and retrograde transport.

Data set [4] concerns Pin1 and PML-RARα in NB4 cells. The data set is described as follows: immunoblot of Pin1 and PML-RARα in APL NB4 cells. Type of data set: cell-based, human. Particulars: for PML-RARα level in APL cells: 72 hours.
Experimental: For immunoprecipitation and immunoblotting in the examples below, cells were polyethylenimine (PEI)- or lipofemamine-transfected with 8 μg of various plasmids, incubated in 10 cm dishes for 24 hours, and subsequently treatment with drugs as needed. […] After centrifugation at 13,000 g for 10 minutes, one tenth of the supernatant was stored as input, and the remainder was incubated 12 hours with M2 Flag agarose (Sigma). After brief centrifugation, immunoprecipitates were collected, extensively washed with the aforementioned lysis buffer twice, suspended in 2×SDS sample buffer (100 mM Tris-HCl, pH 6.8, 4% SDS, 5% β-mercaptoethanol, 20% glycerol, and 0.1% bromphenol blue), boiled for 10 minutes, and subjected to immunoblotting analysis. […] After electrophoresis, gel was transferred to nitrocellulose membranes using a semidry transfer cell. The transblotted membrane was washed twice with Tris-buffered saline containing 0.1% Tween 20 (TBST). After blocking with TBST containing 5% bovine serum albumin (BSA) for 1 hour, the membrane was incubated with the appropriate primary antibody (diluted 1:1000) in 2% BSA-containing TBST at 4° C. overnight. After incubation with the primary antibody, the membrane was washed three times with TBST for a total of 30 minutes followed by incubation with horseradish peroxidase (HRP)-conjugated goat anti-rabbit or anti-mouse IgG (diluted 1:2500) for 1 hour at room temperature. After three extensive washes with TBST for a total of 30 minutes, the immunoblots were visualized by enhanced chemiluminescence.
For another data set, the system named is NB4 cells. As to the kind of experiment: APL cell differentiation in NB4 cells (Giemsa, FACS CD14/CD11b). Particulars: 72 hours. Type of data set: cell-based, human.
Data set [5] relates to APL cells isolated from hCG-PML-RARα transgenic mice.
A further data set concerns human APL NB4 cells. As to the kind of experiment: NB4 cell growth. Format: cell-based. Particulars: co-treatment with ATRA. How it is done: (§1) Absorbance was determined at 570 nm.
In data set [6] the test system is human normal and breast cancer cell lines. The data set is described as follows: cell growth of human normal and breast cancer cell lines. Type of data set: cell-based. Here is the method: as §1
To test this possibility, we chose breast cancer as a model due to the substantial oncogenic role of Pin1 in vitro and in vivo.

The test system of a further data set is RAR. As to the kind of experiment: transactivation of RAR downstream target genes.
For data set [7] the following is noted: cited from earlier work.

Entries after “also recorded” stand apart in the source; their conditions may differ. Non-standard residues stand in square brackets, D forms with d. No end group written: not given here. d(pT) = C[C@H](OP(=O)(O)O)[C@@H](N)C(=O)O; Pip = O=C(O)[C@@H]1CCCCN1

T1 sequence (Q13526 whole entry): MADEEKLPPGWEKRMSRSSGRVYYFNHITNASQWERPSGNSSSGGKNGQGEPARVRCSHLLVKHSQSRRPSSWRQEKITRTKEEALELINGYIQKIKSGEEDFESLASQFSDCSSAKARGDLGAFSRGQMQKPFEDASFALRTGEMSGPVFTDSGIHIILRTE
Chain of GST-FKBP12 (P62942 whole entry): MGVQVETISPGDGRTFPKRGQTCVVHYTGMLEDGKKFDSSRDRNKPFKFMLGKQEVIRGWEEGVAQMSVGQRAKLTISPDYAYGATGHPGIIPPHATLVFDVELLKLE

In the case of `CC1=C(/C=C/C(C)=C/C=C/C(C)=C\C(=O)O)C(C)(C)CCC1` [13cRA, (2Z,4E,6E,8E)-3,7-dimethyl-9-(2,6,6-trimethylcyclohexen-1-yl)nona-2,4,6,8-tetraenoic acid], the “inhibition of PPlase activity of Pin1” value at GST-Pin1 [1] is “fully inhibited”. Also, the Ki on GST-Pin1 [1] (Cheng-Prusoff equation, read-out: Ki from PPlase assay) came to 2370 nM; at GST-Pin1 [2] it was 1160 nM. The “inhibition of FKBP12” value against GST-FKBP12 is recorded as “did not inhibit”. Besides, the inhibition of cyclophilin entry in the data set with GST-cyclophilin is “did not inhibit”. In addition, on GST-Pin1 [2] (24 hours incubation vs 0.5 hours), the “binding to Pin1 in FP assay after longer incubation” value is “difference in binding between 13cRA and ATRA disappears after a longer incubation”. In addition, at GST-Pin1 [2] (~8200 compounds screened, competition with pTide), the “Z score in FP-HTS” value was “lowest Z score”.

Consider `C[C@H]1CCC/C=C/[C@@H]2C[C@H](O)C[C@H]2[C@H](O)/C=C/C(=O)O1` [BFA, brefeldin A], for which the Erk phosphorylation result in [3] is “did not obviously affect Erk phosphorylation”. Moreover, in data set [3] (30 min), the “ERGIC structure (ERGIC53 staining)” value is “ERGIC structures were damaged”.

In the case of `O=C(O[C@@H]1Cc2c(O)cc(O)cc2O[C@@H]1c1cc(O)c(O)c(O)c1)c1cc(O)c(O)c(O)c1` [EGCG], in data set [4], the “Pin1 degradation in NB4 cells” value was “inhibited Pin1 without degrading it” and the “PML-RARα level in APL cells” value is recorded as “dose-dependently reduced PML-RARα”. Besides, the APL cell differentiation result with NB4 cells is “neither Pin1 inhibitors nor Pin1 KD induced APL cell differentiation”. Moreover, the “condition of treated mice (toxic effects)” value in [5] (mouse, in vivo) was “rather sick”. In [5] (same regimens), the “PML-RARα in the bone marrow” value is listed as “effectively reduced PML-RARα” and the spleen weights entry is “nearly at basal levels”.

For `CCOC(=O)CN1C(=O)c2ccc3c4c(ccc(c24)C1=O)C(=O)N(CC(=O)OCC)C3=O` [PiB], in data set [4], the “Pin1 degradation in NB4 cells” value is “inhibited Pin1 without degrading it” and the “PML-RARα level in APL cells” value is on record as “dose-dependently reduced PML-RARα”. The APL cell differentiation result with NB4 cells is reported as “neither Pin1 inhibitors nor Pin1 KD induced APL cell differentiation”.

For `CCCCCCCOc1cc2c(cc1/C(C)=C/c1ccc(C(=O)O)cc1)C(C)(C)CCS2(=O)=O` [Ro-415253], the “restoration of ATRA-mediated Pin1 degradation” value in data set [4] (co-treatment with ATRA) was “unable to restore ATRA-mediated Pin1 degradation”. The “rescue of NB4 cell proliferation suppressed by ATRA” value in the data set on human APL NB4 cells is “unable to rescue NB4 cell proliferation suppressed by ATRA”. For the same molecule, the “effect on the ability of ATRA to induce Pin1 degradation or inhibit cell growth” value in [6] (breast cancer cells (T47D)) is “no obvious effects”. Also, the “transactivation of RAR downstream target genes” value in the data set on RAR is recorded as “suppresses it”. The “Pin1 binding in FP assay” value on GST-Pin1 [2] is “minimal Pin1 binding”.

As to `COc1cc(C)c(/C=C/C(C)=C/C=C/C(C)=C/C(=O)O)c(C)c1C` [acitretin], the “Pin1 binding in FP assay” value on GST-Pin1 [2] is “moderate binding”.

On to `C=C(c1ccc(C(=O)O)cc1)c1cc2c(cc1C)C(C)(C)CCC2(C)C` [bexarotene], for which, at GST-Pin1 [2], the “Pin1 binding in FP assay” value is “marginal binding; also recorded: less potent than ATRA”.

Consider `CC1=C(/C=C/C(C)=C/C=C/C(C)=C/C(=O)Nc2ccc(O)cc2)C(C)(C)CCC1` [fenretinide], for which the “Pin1 binding in FP assay” value on GST-Pin1 [2] was “less potent than ATRA”.

Take `O=C(O)Cc1c[nH]c2ccccc12` [indo-3-acetic acid]: the “Pin1 binding in FP assay” value on GST-Pin1 [2] was “neither pravastatin nor indo-3-acetic acid demonstrated any binding”.

As to `Clc1cccc(C(c2ccc3[nH]cnc3c2)n2ccnc2)c1` (stereo not shown) [liarazole], the “combination effect with ATRA on inhibition of cell proliferation” value in data set [6] (AU565 or SKBR3 cells) is recorded as “generally additive effects with ATRA”.

`CC1=C(/C=C/C(C)=C/C=C/C(C)=C/C=O)C(C)(C)CCC1` [retinal]: on GST-Pin1 [2], the “Pin1 binding in FP assay” value was “totally inactive”.

As for `CC1=C(/C=C/C(C)=C/C=C/C(C)=C/CO)C(C)(C)CCC1` [retinol], on GST-Pin1 [2], the “Pin1 binding in FP assay” value is “totally inactive”.

Take `CC(=O)OC/C=C(C)/C=C/C=C(C)/C=C/C1=C(C)CCCC1(C)C` [retinyl acetate]: at GST-Pin1 [2], the “Pin1 binding in FP assay” value is “totally inactive”.

With `CC1(C)CCC(C)(C)c2cc(NC(=O)c3ccc(C(=O)O)cc3)ccc21` [tamibarotene], the “Pin1 binding in FP assay” value at GST-Pin1 [2] was “moderate binding”.

For “Bth-D-phos.Thr-Pip-Nal ([Bth][d(pT)][Pip][Nal]) [pTide]”, the cell permeability result in data set [7] is listed as “low cell permeability”. The binding selectivity entry with GST-Pin1 [2] (Pin1 PPlase domain vs WW domain vs FKBP12) is “selectively binds Pin1 at its PPlase domain and does not bind to the WW domain of Pin1 or to FKBP12”.

Values taken from patent publication US20170112792A1, “ENHANCED ATRA-RELATED COMPOUNDS DERIVED FROM STRUCTURE-ACTIVITY RELATIONSHIPS AND MODELING FOR INHIBITING PIN1” (Beth Israel Deaconess Medical Center, Inc., priority 2014, published 2017).
